Experiment [1] relates to Tetrodotoxin-sensitive currents (sodium channels). It counts as cell-based, rat. The settings on record: read-out: IC50 tetrodotoxin-sensitive currents; neuron cultures from posterior root ganglia of adult rats.
In experiment [2] the target is T1, human GluR1/2 receptors (Homo sapiens, UniProt P42261+P42262).
T1 construct: expressed in transfected cells; host or cells: HEK 293
The experiment can be described thus: Patch-Clamp inhibition of glutamate-induced membrane currents in HEK 293 cells. Type of experiment: cell-based. Conditions: HEK 293 cells expressing recombinant human GluR1/2, 1 mM glutamate for 1 s, holding potential −80 mV. As to the method:
Ionotropic glutamate receptors of the AMPA sub-type are also essential for the excitatory neurotransmission. […] HEK 293 cells which expressed functionally recombinant human GluR1/2 receptors were electrophysiologically investigated by the Patch-Clamp method ([…]). The administration of 1 mM glutamate (for 1 s at a holding potential of −80 mV) induced membrane currents which were inhibited by the joint administration of ambroxol.
In general terms: In patch-clamp work, channel activity is measured electrically.

A value given as a limit tells only on which side of the number the result lay.

T1 sequence (P42261 19-906): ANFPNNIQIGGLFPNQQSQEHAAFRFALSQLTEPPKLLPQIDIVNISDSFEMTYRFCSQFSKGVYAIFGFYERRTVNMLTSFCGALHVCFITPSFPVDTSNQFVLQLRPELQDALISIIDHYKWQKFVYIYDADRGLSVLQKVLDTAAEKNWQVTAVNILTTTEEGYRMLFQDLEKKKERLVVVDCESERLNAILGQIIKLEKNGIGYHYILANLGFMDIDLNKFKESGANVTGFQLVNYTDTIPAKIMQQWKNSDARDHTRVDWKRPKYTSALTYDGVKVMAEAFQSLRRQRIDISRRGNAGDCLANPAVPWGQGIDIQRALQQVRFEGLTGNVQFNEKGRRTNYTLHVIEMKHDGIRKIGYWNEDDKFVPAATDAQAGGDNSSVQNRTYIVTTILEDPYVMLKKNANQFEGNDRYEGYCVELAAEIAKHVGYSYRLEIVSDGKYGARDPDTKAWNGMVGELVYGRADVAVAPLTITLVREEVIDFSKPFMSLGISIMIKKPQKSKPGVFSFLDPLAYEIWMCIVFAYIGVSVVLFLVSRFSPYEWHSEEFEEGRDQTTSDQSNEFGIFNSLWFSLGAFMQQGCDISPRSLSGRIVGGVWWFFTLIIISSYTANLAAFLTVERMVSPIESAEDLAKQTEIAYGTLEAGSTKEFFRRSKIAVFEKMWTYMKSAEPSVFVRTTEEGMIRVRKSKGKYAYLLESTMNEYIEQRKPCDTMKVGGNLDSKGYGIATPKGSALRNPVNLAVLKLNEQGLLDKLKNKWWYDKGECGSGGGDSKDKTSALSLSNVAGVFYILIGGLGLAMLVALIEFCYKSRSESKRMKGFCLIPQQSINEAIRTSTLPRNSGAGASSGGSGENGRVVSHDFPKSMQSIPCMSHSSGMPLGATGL
T1 sequence (P42262 22-883 limits assumed): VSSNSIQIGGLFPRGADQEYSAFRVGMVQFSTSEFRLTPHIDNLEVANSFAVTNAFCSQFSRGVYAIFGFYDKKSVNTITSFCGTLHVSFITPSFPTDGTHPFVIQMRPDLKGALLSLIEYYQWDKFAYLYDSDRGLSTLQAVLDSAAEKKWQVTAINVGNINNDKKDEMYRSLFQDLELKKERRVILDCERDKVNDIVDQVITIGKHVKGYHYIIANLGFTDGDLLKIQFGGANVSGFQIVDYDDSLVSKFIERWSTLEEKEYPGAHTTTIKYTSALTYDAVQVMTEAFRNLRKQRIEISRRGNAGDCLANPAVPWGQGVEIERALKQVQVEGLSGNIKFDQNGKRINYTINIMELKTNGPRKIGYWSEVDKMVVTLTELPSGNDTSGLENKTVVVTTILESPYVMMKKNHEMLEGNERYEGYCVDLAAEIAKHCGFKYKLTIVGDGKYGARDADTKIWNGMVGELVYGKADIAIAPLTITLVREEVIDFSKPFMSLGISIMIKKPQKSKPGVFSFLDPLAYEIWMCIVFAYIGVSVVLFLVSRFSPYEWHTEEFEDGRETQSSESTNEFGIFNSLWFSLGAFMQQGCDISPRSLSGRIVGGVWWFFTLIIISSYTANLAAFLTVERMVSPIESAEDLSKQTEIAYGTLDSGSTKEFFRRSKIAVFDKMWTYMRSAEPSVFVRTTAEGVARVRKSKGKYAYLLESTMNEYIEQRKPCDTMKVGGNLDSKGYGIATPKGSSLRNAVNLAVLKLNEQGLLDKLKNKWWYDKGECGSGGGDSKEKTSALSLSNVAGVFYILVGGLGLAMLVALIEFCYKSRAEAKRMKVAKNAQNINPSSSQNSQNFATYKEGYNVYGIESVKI

Broadly, the IC50 is the concentration at which inhibition is half-maximal. Take `Nc1c(Br)cc(Br)cc1CN[C@H]1CC[C@H](O)CC1` [ambroxol, trans-4-(2-amino-3,5-dibromobenzylamino)cyclohexanol]: the half-inhibitory concentration (IC50) in experiment [1] is over 100 µM. The “concentrations inhibiting glutamate-induced membrane currents” value in experiment [2] fell in the range of 30 to 1000 µM.

For the origin of these results see patent publication US20050014847A1, “Ambroxol for the treatment of chronic nociceptive pain” (Boehringer Ingelheim International GmbH, priority 2003, published 2005).
